A flash point compilation (Sun et al. 2020)

Row | Compound | flash point [°C]
1 | C=C(C)C(=O)OC1CCCCC1 [cyclohexylmethacrylate] | 82
2 | CCC(=O)OC1CCCCC1 [cyclohexylpropanoate] | 68
3 | C1CCCCCCCC1 [cyclononane] | 43
4 | OC1CCCC1 [cyclopentanol] | 51
5 | COC1CCCC1 [cyclopentylmethylether] | -1
6 | NC1CC1 [cyclopropylamine] | -25
7 | CCCCCCCCCC=O [decanal] | 83
8 | CCCCCCCCCC#N [decanenitrile] | 92
9 | CCCCCCCCCCOC(C)=O [decylacetate] | 104
10 | CCC(C)SC(C)CC (stereo not given) [di-sec-butylsulfide] | 39
11 | CC(C)(C)SC(C)(C)C [di-tert-butylsulfide] | 27
12 | C=CCSSCC=C [diallyldisulfide] | 62
13 | C=CCOCC=C [diallylether] | -7
14 | CCOCOCC [diethoxymethane] | -5
15 | CCOC(=O)OCC [diethylcarbonate] | 33
16 | CCSSCC [diethyldisulfide] | 39
17 | CCOCC [diethylether] | -40

Row | Compound | flash point [°C]
18 | CCSCC [diethylsulfide] | -10
19 | CC(C)CNCC(C)C [diisobutylamine] | 30
20 | CC(C)CC(=O)CC(C)C [diisobutylketone] | 49
21 | CC(C)COC(=O)c1ccccc1C(=O)OCC(C)C [diisobutylphthalate] | 185
22 | CC(C)CCSCCC(C)C [diisopentylsulfide] | 77
23 | CC(C)OC(C)C [diisopropylether] | -28
24 | CCCCCOCCCCC [dipentylether] | 57
25 | c1ccc(Cc2ccccc2)cc1 [diphenylmethane] | 127
26 | CCCNCCC [dipropylamine] | 7
27 | CCCOC(=O)OCCC [dipropylcarbonate] | 55
28 | CCCSCCC [dipropylsulfide] | 28
29 | C=COC=C [divinylether] | -47
30 | CCOC(=O)CCl [ethylchloroacetate] | 53
31 | O=Cc1ccco1 [furfural] | 58
32 | OCc1ccco1 [furfurylalcohol] | 75
33 | CC(C)C#N [isobutyronitrile] | 8

Continued, values first:

Row | flash point [°C] | Compound
34 | 102 | CCCCCCCCCCCC=O [dodecanal]
35 | 12 | CCO [ethanol]
36 | 13 | CCOC(=O)C(C)C [ethyl2-methylpropanoate]
37 | 70 | CCOC(=O)CC(C)=O [ethylacetoacetate]
38 | 21 | CCc1ccccc1 [ethylbenzene]
39 | 84 | CCOC(=O)c1ccccc1 [ethylbenzoate]
40 | 20 | CCCC(=O)OCC [ethylbutanoate]
41 | 135 | CCOC(=O)C=Cc1ccccc1 [ethylcinnamate]
42 | -19 | CCOC=O [ethylformate]
43 | 19 | C=C(C)C(=O)OCC [ethylmethacrylate]
44 | -18 | CCSC [ethylmethylsulfide]
45 | 35 | CCCCC(=O)OCC [ethylpentanoate]
46 | -25 | CCCOCC [ethylpropylether]
47 | -45 | C=COCC [ethylvinylether]
48 | -15 | Fc1ccccc1 [fluorobenzene]
49 | 109 | CCCCCCC(=O)O [heptanoicacid]

Row | flash point [°C] | Compound
50 | 67 | CCCCCCCOC(C)=O [heptylacetate]
51 | 44 | CCCCCCCN [heptylamine]
52 | 60 | CCCCCCCOC=O [heptylformate]
53 | 102 | CCCCCC(=O)O [hexanoicacid]
54 | 113 | CCCCCC(=O)OC(=O)CCCCC [hexanoicanhydride]
55 | 27 | CCCCCCN [hexylamine]
56 | 83 | CCCCCCc1ccccc1 [hexylbenzene]
57 | 65 | CCCCCCOC(=O)CC [hexylpropanoate]
58 | 67 | CC(C)C(=O)OC(=O)C(C)C [isobutanoicanhydride]
59 | -10 | CC(C)CN [isobutylamine]
60 | 50 | CC(C)Cc1ccccc1 [isobutylbenzene]
61 | 102 | CC(C)COC(=O)c1ccccc1 [isobutylbenzoate]
62 | 4 | CC(C)COC=O [isobutylformate]
63 | 46 | CCC(=O)OCCC(C)C [isopentylpropanoate]
64 | 84 | CC1=CC(=O)CC(C)(C)C1 [isophorone]
65 | 2 | CC(=O)OC(C)C [isopropylacetate]
